# Measurements as given in patent US12157730B2, “Heteroaryl derivative, method for producing same, and pharmaceutical composition comprising same as effective component” (VORONOI INC., priority 2019, dated 2024).
# Biological target: T1, Ba/F3 cell EGFR Exon20 ins NPH (Homo sapiens, UniProt P00533, INS773NPH)
# T1 construct: expressed in transfected cells; host or cells: Ba/F3
# Experiment: Ba/F3 cell proliferation suppression, EGFR Exon20 ins NPH
# Type: cell-based
# Details: GI50 class; Ba/F3 cell line with NPH inserted at Exon20 of EGFR; 72 hours
# How it was run: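 Cells were seeded 24 h before dosing and then treated for 72 hours with compound at final concentrations of 0.3 nM to 50 um. Live cells were measured by CellTiter-Glo luminescence, and GI50 values were derived from growth ratio relative to control across three repeats.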
row,SMILES,Ba/F3 (NPH) Activity
1,"C#Cc1cccc([C@H]2CCON2c2cc(Nc3cc(NC(=O)C=C)c(N4CCC(N5CCN(CC)CC5)CC4)cc3OC)ncn2)c1 [compound 652, N-(2-(4-(4-ethylpiperazine-1-yl)piperidine-1-yl)-5-((6-((R)-3-(3-ethynylphenyl)isoxazolidine-2-yl)pyrimidine-4-yl)amino)-4-methoxyphenyl) acrylamide]",B (50 nM ≤ GI50 < 500 nM)
2,"C=CC(=O)Nc1cc(Nc2cc(N3OCC[C@@H]3c3ccc(Cl)c(Cl)c3F)ncn2)c(OC)cc1N1CCC(N2CC[C@H](N(C)C)C2)CC1 [compound 772, N-(5-((6-((R)-3-(3,4-dichloro-2-fluorophenyl)isoxazolidine-2-yl)pyrimidine-4-yl)amino)-2-(4-((S)-3-(dimethylamino)pyrolidine-1-yl)piperidine-1-yl)-4-methoxyphenyl) acrylamide]",B (50 nM ≤ GI50 < 500 nM)
3,"C=CC(=O)Nc1cc(Nc2cc(N3OCC[C@@H]3c3ccc(F)c(F)c3)ncn2)c(OC)cc1N1CCC(N2C[C@@H]3C[C@H]2CO3)CC1 [compound 497, N-(2-(4-((1S,4S)-2-oxa-5-azabicyclo[2.2.1]heptane-5-yl)piperidine-1-yl)-5-((6-((R)-3-(3,4-difluorophenyl)isoxazolidine-2-yl)pyrimidine-4-yl)amino)-4-methoxyphenyl) acrylamide]",B (50 nM ≤ GI50 < 500 nM)
4,"C=CC(=O)Nc1cc(Nc2cc(N3OCC[C@@H]3c3cccc(OC)c3)ncn2)c(OC)cc1N1CC[C@@H](N2CCOCC2)C1 [compound 777, N-(4-methoxy-5-((6-((R)-3-(3-methoxyphenyl)isoxazolidine-2-yl)pyrimidine-4-yl)amino)-2-((R)-3-morpholinopyrolidine-1-yl)phenyl)acrylamide]",B (50 nM ≤ GI50 < 500 nM)
5,"C=CC(=O)Nc1cc(Nc2cc(N3OCC[C@@H]3c3ccc(Cl)c(Cl)c3)ncn2)c(OC)cc1N1C[C@@H]2C[C@H]1CN2CC [compound 678, N-(5-((6-((R)-3-(3,4-dichlorophenyl)isoxazolidine-2-yl)pyrimidine-4-yl)amino)-2-((1S,4S)-5-ethyl-2,5-diazabicyclo[2.2.1]heptane-2-yl)-4-methoxyphenyl) acrylamide]",A (GI50 < 50 nM)
6,"C#Cc1cccc([C@H]2CCON2c2cc(Nc3cc(NC(=O)C=C)c(N4CCC(N5CCN(C6CC6)CC5)CC4)cc3OC)ncn2)c1 [Example 165, N-(2-(4-(4-cyclopropylpiperazine-1-yl)piperidine-1-yl)-5-((6-((R)-3-(3-ethynylphenyl)isoxazolidine-2-yl)pyrimidine-4-yl)amino)-4-methoxyphenyl) acrylamide]",A (GI50 < 50 nM)
7,"C=CCN1CCN(C2CCN(c3cc(OC)c(Nc4cc(N5OCC[C@@H]5c5ccc(F)c(Cl)c5)ncn4)cc3NC(=O)C=C)CC2)CC1 [Example 89, N-(2-(4-(4-allylpiperazine-1-yl)piperidine-1-yl)-5-((6-((R)-3-(3-chloro-4-fluorophenyl)isoxazolidine-2-yl)pyrimidine-4-yl)amino)-4-methoxyphenyl) acrylamide]",A (GI50 < 50 nM)
8,"C=CC(=O)Nc1cc(Nc2cc(N3OCC[C@@H]3c3cccc(OC)c3)ncn2)c(OC)cc1N1CCC(N2C[C@H]3C[C@@H]2CO3)CC1 [compound 726, N-(2-(4-((1R,4R)-2-oxa-5-azabicyclo [2.2.1]heptane-5-yl)piperidine-1-yl)-4-methoxy-5-((6-((R)-3-(3-methoxyphenyl)isoxazolidine-2-yl)pyrimidine-4-yl)amino)phenyl)acrylamide]",A (GI50 < 50 nM)
9,"C=CC(=O)Nc1cc(Nc2cc(N3OCC[C@@H]3c3ccccc3)ncn2)c(OC)cc1N1CCC(N2CCN(CC)CC2)CC1 [Example 55, N-(2-(4-(4-ethylpiperazine-1-yl)piperidine-1-yl)-4-methoxy-5-((6-((R)-3-phenylisoxazolidine-2-yl)pyrimidine-4-yl)amino)phenyl) acrylamide]",A (GI50 < 50 nM)
10,"C=CC(=O)Nc1cc(Nc2cc(N3OCC[C@H]3Cc3cccnc3)ncn2)c(OC)cc1N1CCC(N2CCN(C3CC3)CC2)CC1 [compound 988, N-(2-(4-(4-cyclopropylpiperazine-1-yl)piperidine-1-yl)-4-methoxy-5-((6-((R)-3-(pyridine-3-ylmethyl)isoxazolidine-2-yl)pyrimidine-4-yl)amino)phenyl) acrylamide]",B (50 nM ≤ GI50 < 500 nM)
11,"C=CC(=O)Nc1cc(Nc2cc(N3OCC[C@@H]3c3cccc(C#N)c3)ncn2)c(OC)cc1N1CCC(N2CCN(CCC)CC2)CC1 [compound 432, N-(5-((6-((R)-3-(3-cyanophenyl)isoxazolidine-2-yl)pyrimidine-4-yl)amino)-4-methoxy-2-(4-(4-propylpiperazine-1-yl)piperidine-1-yl)phenyl) acrylamide]",A (GI50 < 50 nM)

# Other lines, results leading:
row,Ba/F3 (NPH) Activity,SMILES
1,A (GI50 < 50 nM),"C=CC(=O)Nc1cc(Nc2cc(N3OCC[C@@H]3c3ccc(F)c(Cl)c3)ncn2)c(OC)cc1N1CCC(N2CCN(C(C)C)CC2)CC1 [compound 715, N-(5-((6-((R)-3-(3-chloro-4-fluorophenyl)isoxazolidine-2-yl)pyrimidine-4-yl)amino)-2-(4-(4-isopropylpiperazine-1-yl)piperidine-1-yl)-4-methoxyphenyl) acrylamide]"
2,A (GI50 < 50 nM),"C=CC(=O)Nc1cc(Nc2cc(N3OCC[C@@H]3c3cccc(C#N)c3)ncn2)c(OC)cc1N1CCC(N2CCN(C3CCC3)CC2)CC1 [Example 183, N-(5-((6-((R)-3-(3-cyanophenyl)isoxazolidine-2-yl)pyrimidine-4-yl)amino)-2-(4-(4-cyclobutylpiperazine-1-yl)piperidine-1-yl)-4-methoxyphenyl) acrylamide]"
3,A (GI50 < 50 nM),"C=CC(=O)Nc1cc(Nc2cc(N3OCC[C@@H]3c3ccc(Cl)cc3F)ncn2)c(OC)cc1N1CCC(N2CCN(C(C)=O)CC2)CC1 [compound 375, N-(2-(4-(4-acetylpiperazine-1-yl)piperidine-1-yl)-5-((6-((R)-3-(4-chloro-2-fluorophenyl)isoxazolidine-2-yl)pyrimidine-4-yl)amino)-4-methoxyphenyl) acrylamide]"
4,A (GI50 < 50 nM),"C=CC(=O)Nc1cc(Nc2cc(N3OCC[C@@H]3c3ccc(Cl)c(Cl)c3)ncn2)c(OC)cc1N1C[C@H]2C[C@@H]1CN2C [compound 674, N-(5-((6-((R)-3-(3,4-dichlorophenyl)isoxazolidine-2-yl)pyrimidine-4-yl)amino)-4-methoxy-2-((1R,4R)-5-methyl-2,5-diazabicyclo[2.2.1]heptane-2-yl)phenyl) acrylamide]"
5,A (GI50 < 50 nM),"C=CC(=O)Nc1cc(Nc2cc(N3OCC[C@@H]3c3cccc(Cl)c3Cl)ncn2)c(OC)cc1N1CCN(C2CC2)CC1 [compound 518, N-(2-(4-cyclopropylpiperazine-1-yl)-5-((6-((R)-3-(2,3-dichlorophenyl)isoxazolidine-2-yl)pyrimidine-4-yl)amino)-4-methoxyphenyl) acrylamide]"
6,A (GI50 < 50 nM),"C=CC(=O)Nc1cc(Nc2cc(N3OCC[C@@H]3c3cc(F)cc(F)c3)ncn2)c(OC)cc1N1CCC(N2C[C@H](C)N(C3CC3)C[C@@H]2C)CC1 [Example 113, N-(2-(4-((2S,5S)-4-cyclopropyl-2,5-dimethylpiperazine-1-yl)piperidine-1-yl)-5-((6-((R)-3-(3,5-difluorophenyl)isoxazolidine-2-yl)pyrimidine-4-yl)amino)-4-methoxyphenyl) acrylamide]"
7,A (GI50 < 50 nM),"C=CC(=O)Nc1cc(Nc2cc(N3OCC[C@@H]3c3ccc(F)c(Cl)c3)ncn2)c(OC)cc1N1CCN(C)CC1 [compound 702, N-(5-((6-((R)-3-(3-chloro-4-fluorophenyl)isoxazolidine-2-yl)pyrimidine-4-yl)amino)-4-methoxy-2-(4-methylpiperazine-1-yl)phenyl)acrylamide]"
8,A (GI50 < 50 nM),"C=CC(=O)Nc1cc(Nc2cc(N3OCC[C@@H]3c3cc(F)ccc3F)ncn2)c(OC)cc1N1CCC(N2CCN(C)CC2)CC1 [compound 765, N-(5-((6-((R)-3-(2,5-difluorophenyl)isoxazolidine-2-yl)pyrimidine-4-yl)amino)-4-methoxy-2-(4-(4-methylpiperazine-1-yl)piperidine-1-yl)phenyl)acrylamide]"
9,B (50 nM ≤ GI50 < 500 nM),"C=CC(=O)Nc1cc(Nc2cc(N3OCC[C@@H]3c3ccc4ccccc4c3)ncn2)c(OC)cc1N1CCC(N2CCN(C(C)=O)CC2)CC1 [compound 556, N-(2-(4-(4-acetylpiperazine-1-yl)piperidine-1-yl)-4-methoxy-5-((6-((R)-3-(naphthalene-2-yl)isoxazolidine-2-yl)pyrimidine-4-yl)amino)phenyl) acrylamide]"
10,A (GI50 < 50 nM),"C=CC(=O)Nc1cc(Nc2cc(N3OCC[C@@H]3c3cccc(Cl)c3F)ncn2)c(OC)cc1N1CCC(N2CCO[C@H](C)C2)CC1 [compound 357, N-(5-((6-((R)-3-(3-chloro-2-fluorophenyl)isoxazolidine-2-yl)pyrimidine-4-yl)amino)-4-methoxy-2-(4-((R)-2-methylmorpholino)piperidine-1-yl)phenyl) acrylamide]"
11,B (50 nM ≤ GI50 < 500 nM),"C=CC(=O)Nc1cc(Nc2cc(N3OCC[C@@H]3c3ccc4ccccc4c3)ncn2)c(OC)cc1N1CCC(N2CCN(C3CCC3)CC2)CC1 [Example 190, N-(2-(4-(4-cyclobutylpiperazine-1-yl)piperidine-1-yl)-4-methoxy-5-((6-((R)-3-(naphthalene-2-yl)isoxazolidine-2-yl)pyrimidine-4-yl)amino)phenyl)acrylamide]"
12,C (500 nM ≤ GI50 < 5000 nM),"C=CC(=O)Nc1cc(Nc2cc(N3OCC[C@H]3Cc3ccccc3)ncn2)c(OC)cc1N1CCN(CC2CC2)CC1 [compound 967, N-(5-((6-((R)-3-benzylisoxazolidine-2-yl)pyrimidine-4-yl)amino)-2-(4-(cyclopropylmethyl)piperazine-1-yl)-4-methoxyphenyl) acrylamide]"
